Measurements from article PMC5146650, “Effect of arginine on oligomerization and stability of N-acetylglutamate synthase” (Scientific Reports, 2016).
“And” between values parts separate entries of the source, which are not always exact repeats. Equal values may be shown once.

Columns and labels:
[1] = target: T1, XcNAGS-K (Xanthomonas campestris, UniProt B0RS52); assay: sedimentation velocity ultracentrifugation and Thermofluor; format: binding; details: 1 mM L-arginine; 10 mM Tris, 50 mM KCl, 1 mM TCEP, pH 8.0, 20 °C (ultracentrifugation); allosteric
T1 construct: gene argB
T1 sequence (B0RS52 1-447): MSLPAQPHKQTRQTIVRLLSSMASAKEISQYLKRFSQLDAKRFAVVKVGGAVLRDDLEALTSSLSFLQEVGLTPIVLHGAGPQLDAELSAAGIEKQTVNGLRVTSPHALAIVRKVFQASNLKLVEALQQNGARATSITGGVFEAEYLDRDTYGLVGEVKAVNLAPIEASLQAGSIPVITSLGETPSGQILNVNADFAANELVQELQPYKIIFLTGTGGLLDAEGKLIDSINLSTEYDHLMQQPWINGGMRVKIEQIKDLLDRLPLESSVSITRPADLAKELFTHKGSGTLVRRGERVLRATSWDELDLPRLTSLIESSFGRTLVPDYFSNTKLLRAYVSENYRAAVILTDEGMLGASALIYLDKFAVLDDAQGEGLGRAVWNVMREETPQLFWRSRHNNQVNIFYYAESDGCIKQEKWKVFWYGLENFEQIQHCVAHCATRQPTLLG

[2] = target: T2, NgNAGS (Neisseria gonorrhoeae, UniProt Q5FAK7); assay: Thermofluor thermal shift, SYPRO Orange; format: binding; details: read-out: change in Tm at 1 mM
T2 construct: gene argA; hexamer
T2 sequence (Q5FAK7 1-436): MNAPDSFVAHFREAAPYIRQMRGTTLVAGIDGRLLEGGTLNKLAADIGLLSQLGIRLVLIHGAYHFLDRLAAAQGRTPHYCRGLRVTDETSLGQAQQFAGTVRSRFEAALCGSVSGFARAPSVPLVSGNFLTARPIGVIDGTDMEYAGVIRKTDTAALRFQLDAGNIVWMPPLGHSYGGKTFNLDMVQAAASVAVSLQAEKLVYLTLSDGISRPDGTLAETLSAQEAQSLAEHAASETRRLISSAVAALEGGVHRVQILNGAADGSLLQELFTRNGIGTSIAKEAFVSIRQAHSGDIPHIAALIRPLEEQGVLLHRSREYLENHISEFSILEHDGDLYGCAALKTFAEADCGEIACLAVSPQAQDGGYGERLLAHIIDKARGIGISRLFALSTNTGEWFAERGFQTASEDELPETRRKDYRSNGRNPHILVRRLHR

[3] = target: T3, mNAGS-M (Mus musculus, UniProt Q8R4H7); assay: Thermofluor thermal shift, SYPRO Orange; format: binding; details: read-out: change in Tm at 10 mM
T3 construct: gene Nags; mature form, mitochondrial targeting signal removed, variable segment kept
T3 sequence (Q8R4H7 51-527): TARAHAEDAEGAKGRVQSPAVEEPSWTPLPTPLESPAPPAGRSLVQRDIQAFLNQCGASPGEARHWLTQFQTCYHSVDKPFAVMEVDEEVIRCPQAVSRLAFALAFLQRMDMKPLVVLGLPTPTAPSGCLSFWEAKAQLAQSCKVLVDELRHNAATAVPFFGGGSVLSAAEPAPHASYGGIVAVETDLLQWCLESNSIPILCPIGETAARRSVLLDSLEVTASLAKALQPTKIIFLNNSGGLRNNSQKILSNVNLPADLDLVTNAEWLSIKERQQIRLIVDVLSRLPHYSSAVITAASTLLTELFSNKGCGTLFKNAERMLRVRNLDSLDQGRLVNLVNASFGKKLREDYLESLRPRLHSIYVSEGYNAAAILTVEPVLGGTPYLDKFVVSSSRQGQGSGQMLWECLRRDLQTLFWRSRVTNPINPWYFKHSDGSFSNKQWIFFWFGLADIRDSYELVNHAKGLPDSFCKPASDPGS

[4] = target: T4, MmNAGS-K (Maricaulis maris, UniProt Q0ASS9); assay: Thermofluor thermal shift, SYPRO Orange; format: binding; details: read-out: change in Tm at 10 mM
T4 construct: gene Mmar10_0365
T4 sequence (Q0ASS9 1-441): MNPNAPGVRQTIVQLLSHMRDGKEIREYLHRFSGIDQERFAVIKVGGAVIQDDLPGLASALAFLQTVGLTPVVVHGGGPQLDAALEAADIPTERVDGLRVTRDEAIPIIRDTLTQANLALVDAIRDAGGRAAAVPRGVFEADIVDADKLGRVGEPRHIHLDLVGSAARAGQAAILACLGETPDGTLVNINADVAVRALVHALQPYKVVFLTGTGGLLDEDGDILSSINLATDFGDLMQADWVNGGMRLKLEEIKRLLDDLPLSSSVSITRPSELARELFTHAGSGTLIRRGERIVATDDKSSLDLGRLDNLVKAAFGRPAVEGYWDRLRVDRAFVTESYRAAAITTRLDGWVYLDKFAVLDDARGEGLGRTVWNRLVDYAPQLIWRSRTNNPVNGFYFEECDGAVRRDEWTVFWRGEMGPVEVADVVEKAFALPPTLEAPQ

[5] = target: T5, mNAGS-C (Mus musculus, UniProt Q8R4H7); assay: Thermofluor thermal shift, SYPRO Orange; format: binding; details: read-out: change in Tm at 10 mM
T5 construct: gene Nags; conserved segment only, mitochondrial targeting signal and variable segment removed
T5 sequence (Q8R4H7 84-527 limits assumed): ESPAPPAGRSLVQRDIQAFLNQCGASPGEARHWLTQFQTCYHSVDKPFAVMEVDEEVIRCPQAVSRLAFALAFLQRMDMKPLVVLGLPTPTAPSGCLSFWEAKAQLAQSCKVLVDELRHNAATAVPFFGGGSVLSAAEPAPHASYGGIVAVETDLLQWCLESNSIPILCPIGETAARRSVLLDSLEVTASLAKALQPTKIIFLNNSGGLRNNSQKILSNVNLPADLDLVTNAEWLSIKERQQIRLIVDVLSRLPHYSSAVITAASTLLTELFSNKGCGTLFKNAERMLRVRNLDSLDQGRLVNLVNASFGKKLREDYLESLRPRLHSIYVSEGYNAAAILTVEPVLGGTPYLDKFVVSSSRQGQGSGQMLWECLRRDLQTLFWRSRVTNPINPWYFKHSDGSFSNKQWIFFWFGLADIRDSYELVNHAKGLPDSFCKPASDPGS

[6] = target: T5, mNAGS-C; assay: NAGS activity assay after […] min preincubation at […]-45 °C; format: biochemical; details: 1 mM L-arginine; assayed at 30 °C; allosteric activator; range covers mNAGS-M and mNAGS-C
[7] = target: T3, mNAGS-M; assay: as above; format: biochemical; details: 1 mM L-arginine; assayed at 30 °C; allosteric activator; range covers mNAGS-M and mNAGS-C
[8] = target: bifunctional N-acetylglutamate synthase-kinase from Xanthomonas campestris (Xanthomonas campestris); assay: AUC; sedimentation velocity, sw isotherm fitted to a tetramer-octamer association model (octamer to tetramers); with 1 mM L-arginine; 20 °C, 50,000 rpm, 10 mM Tris, 50 mM KCl, 1 mM TCEP, pH 8.0
[9] = target: bifunctional N-acetylglutamate synthase-kinase from Xanthomonas campestris (Xanthomonas campestris); assay: AUC; sedimentation velocity, global fit of raw data with explicit Lamm equation solutions and reaction kinetics, tetramer-octamer model (octamer to tetramers); without L-arginine; 35, 26, 17, 12, 9, 4 and 2 uM monomer, 20 °C, 10 mM Tris, 50 mM KCl, 1 mM TCEP
[10] = target: bifunctional N-acetylglutamate synthase-kinase from Xanthomonas campestris (Xanthomonas campestris); assay: AUC; sedimentation velocity, c(s) distributions and sw isotherm fitted to a tetramer-octamer association model (octamer to tetramers); without L-arginine; 2-40 uM monomer, 20 °C, 50,000 rpm, 10 mM Tris, 50 mM KCl, 1 mM TCEP, pH 8.0

N=C(N)NCCC[C@H](N)C(=O)O [L-arginine]
sedimentation velocity ultracentrifugation and Thermofluor [1]: equilibrium between XcNAGS-K tetramers and octamers depends on the presence and binding of L-arginine
ΔTm at 1000 µM [2]: ~-2.5 °C
ΔTm at 10000 µM [3]: ~5 °C
ΔTm at 10000 µM [4]: ~10 °C
ΔTm at 10000 µM [5]: ~5 °C
fold increase of specific activity at 1 mM [6]: 1.5- to 4
fold increase of specific activity at 1 mM [7]: 1.5- to 4

bifunctional N-acetylglutamate synthase-kinase from Xanthomonas campestris (enzyme)
Kd [8]: 37000 nM
Kd [9]: 2600 nM
half-life for the octamer [9]: 45 min
log10koff [9]: -3.6
Kd [10]: 2900 nM
stoichiometry N [10]: 4 and 8
